{"source": "patent US20120258945A1", "about": "“Association Between Ferroquine and an Artemisinine Derivative for Treating Malaria” (priority 2005, published 2012)", "key": {"[1]": {"system": "Plasmodium vinckei vinckei", "test": "In vivo activity in mice infected with Plasmodium vinckei vinckei: parasitaemia at D4 after 4 days of oral treatment", "from_the_text": "Female “Swiss” mice, aged eight weeks and one day, are inoculated with parasites of Plasmodium vinckei vinckei type (Rodhain, 1952). The mice are acclimatized beforehand for two weeks. The mice are given food and drink ad libitum.\nThe Plasmodium vinckei vinckei strain is maintained by weekly infection in the mouse with 10^7 parasitized erythrocytes suspended in a phosphate buffered saline (0.9%).\n(§1) This administration is repeated on the following three days (D1 to D3) (Peter, 1987). When the two products are administered in combination, the artesunate is administered first, the ferroquine is administered second, 45 minutes later. On the fourth day, a blood smear is taken from the tail of the mouse. The sample is fixed on a plate. The number of parasitized blood cells is counted under a microscope. The parasitaemia is expressed as percentage of infected erythrocytes present in the sample on a sample of 1000 cells. Six or seven mice are used per dose.\nThe IC50 is defined as the concentration in mg/kg/day which inhibits the blood parasitaemia by 50% at the fourth day (D4) after infection (D0) and four days of treatment (D0,D1,D2,D3). 0% inhibition corresponds to the mean of the parasitaemias observed in the untreated infected mice. […]\nThe IC50 of ferroquine is determined after administration of concentrations of between 1 and 10 mg/kg/day. […]"}, "[2]": {"system": "Plasmodium vinckei vinckei", "test": "Mortality / survival and curative dose in mice infected with Plasmodium vinckei vinckei", "format": "in vivo", "conditions": "oral, 4 days of treatment, compounds administered separately", "procedure": "as §1, with “On the first day of treatment (D0), one hour after infection (10^7 parasitized erythrocytes suspended in a phosphate buffered saline (0.9%)), the animal is administered, orally, as appropriate, with ferroquine, with artesunate or with a mixture of the two active ingredients. This” for “This”\nEach day, from day 5 after infection, the number of dead mice is counted so as to determine the percentage mortality (number of mice dead relative to the number of mice of the batch considered). The curative dose is the first dose at which all the mice of the batch survive."}}, "data": [{"smiles": "C[C@@H]1CC[C@H]2[C@@H](C)C(OC(=O)CCC(=O)[O-])O[C@@H]3O[C@]4(C)CC[C@@H]1C32OO4.[Na+]", "note": "(stereo partly drawn) [artesunate]", "values": [{"measurement": "IC50 (dose which inhibits the blood parasitaemia by 50% at D4)", "setting": "[1]; 4 days of treatment (D0-D3), parasitaemia at D4, compounds administered separately, linear interpolation of dose-response curve", "value": 2.79, "unit": "mg/kg/day"}, {"measurement": "Parasitaemia (as %), mean", "setting": "[1]; artesunate 6 mg/kg/day alone (ferroquine 0), 4 days, infected erythrocytes at fourth day after infection", "value": 7.1, "unit": "%"}, {"measurement": "curative dose (first dose at which all the mice of the batch survive)", "setting": "[2]", "value": "greater than 15 mg/kg/day"}]}]}
